# Assay results as given in US20220187282A1, “CARDIOMYOCYTE PROLIFERATION” (The Council of the Queensland Institute of Medical Research, priority 2019, published 2022).
# Read-outs that look alike come from different tables or passages of the source.
# Columns and labels:
# Format in all cases: biochemical
# kinases [1] = molecular target: kinases (Homo sapiens, UniProt Q9UBS0); details: RPS6KB2 FRET-Z-Lyte SP; Test Conc(μM):ATP Conc(μM) 1:50
# kinases [2] = molecular target: kinases (Homo sapiens, UniProt Q5VT25); details: CDC42 BPA (MRCKA) Z-Lyte SP; Test Conc(μM):ATP Conc(μM) 1:5
# kinases [3] = molecular target: kinases (Homo sapiens, UniProt O15111); details: CHUK(IKK alpha) FRET-Adapta SP; Test Conc(μM):ATP Conc(μM) 1:10
# kinases [4] = molecular target: kinases (Homo sapiens, UniProt Q9UEW8); details: STK39 (STLK3) FRET-Lantha SP; Test Conc(μM) 1
# kinases [5] = molecular target: kinases (Homo sapiens, UniProt Q56UN5); details: MAP3K19 (YSK4) FRET-Z-Lyte SP; Test Conc(μM):ATP Conc(μM) 1:5
# kinases [6] = molecular target: kinases (Homo sapiens, UniProt P08922); details: ROS1 FRET-Z-Lyte SP; Test Conc(μM):ATP Conc(μM) 1:50
# kinases [7] = molecular target: kinases (Homo sapiens, UniProt P53778); details: MAPK12 (p38 gamma) Z-Lyte SP; Test Conc(μM):ATP Conc(μM) 1:10
# kinases [8] = molecular target: kinases (Homo sapiens, UniProt P07947); details: YES1 FRET-Z-Lyte SP; Test Conc(μM):ATP Conc(μM) 1:25
# kinases [9] = molecular target: kinases (Homo sapiens, UniProt Q9H4A3); details: Test Conc(μM) 1
# kinases [10] = molecular target: kinases (Homo sapiens, UniProt Q8TF76); details: GSG2 (Haspin) FRET-Adapta SP; Test Conc(μM):ATP Conc(μM) 1:25
# kinases [11] = molecular target: kinases (Homo sapiens, UniProt Q9NYY3); details: PLK2 FRET-Z-Lyte SP; Test Conc(μM):ATP Conc(μM) 1:25
# kinases [12] = molecular target: T1, kinases (Homo sapiens, UniProt O15530)
# T1 sequence (O15530 1-556): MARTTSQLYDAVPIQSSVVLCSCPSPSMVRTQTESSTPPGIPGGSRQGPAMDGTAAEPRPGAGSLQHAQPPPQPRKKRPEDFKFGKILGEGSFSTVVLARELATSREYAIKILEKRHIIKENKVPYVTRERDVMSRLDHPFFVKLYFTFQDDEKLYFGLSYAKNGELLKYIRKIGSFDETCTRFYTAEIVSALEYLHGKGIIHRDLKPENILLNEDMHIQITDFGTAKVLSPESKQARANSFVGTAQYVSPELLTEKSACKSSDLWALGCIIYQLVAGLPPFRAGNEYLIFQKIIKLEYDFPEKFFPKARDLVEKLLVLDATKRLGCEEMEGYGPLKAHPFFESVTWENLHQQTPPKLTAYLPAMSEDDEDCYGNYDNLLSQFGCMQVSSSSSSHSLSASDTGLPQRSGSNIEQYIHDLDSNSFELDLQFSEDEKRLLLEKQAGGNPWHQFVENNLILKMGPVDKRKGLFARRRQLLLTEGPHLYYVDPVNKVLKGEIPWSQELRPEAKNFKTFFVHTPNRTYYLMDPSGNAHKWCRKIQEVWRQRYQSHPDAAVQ
# kinases [13] = molecular target: kinases (Homo sapiens, UniProt Q13976); details: PRKG1 FRET-Z-Lyte SP; Test Conc(μM):ATP Conc(μM) 1:25
# kinases [14] = molecular target: kinases (Homo sapiens, UniProt Q9Y243); details: AKT3 (PKB gamma) Z-Lyte SP; Test Conc(μM):ATP Conc(μM) 1:100
# kinases [15] = molecular target: kinases (Homo sapiens, UniProt Q86SG6); details: NEK8 FRET-Lantha SP; Test Conc(μM) 1
# kinases [16] = molecular target: kinases (Homo sapiens, UniProt P42679); details: MATK (HYL) FRET-Z-Lyte SP
# kinases [17] = molecular target: kinases (Homo sapiens, UniProt Q9Y6M4); details: CSNK1G3 (CK1gamma3) Z-Lyte SP; Test Conc(μM):ATP Conc(μM) 1:5
# kinases [18] = molecular target: kinases (Homo sapiens, UniProt Q13470); details: TNK1 FRET-Z-Lyte SP; Test Conc(μM):ATP Conc(μM) 1:200
# kinases [19] = molecular target: kinases (Homo sapiens, UniProt P00533); details: EGFR (ErbB1) *Mn* Z-Lyte SP; Test Conc(μM):ATP Conc(μM) 1:10
# kinases [20] = molecular target: kinases (Homo sapiens, UniProt Q2M2I8); details: AAK1 FRET-Lantha SP; Test Conc(μM) 1
# kinases [21] = molecular target: kinases (Homo sapiens, UniProt P21709); details: EPHA1 FRET-Z-Lyte SP; Test Conc(μM):ATP Conc(μM) 1:25
# kinases [22] = molecular target: kinases (Homo sapiens, UniProt P05771); details: PRKCB1 (PKC beta I) Z-Lyte SP; Test Conc(μM):ATP Conc(μM) 1:200
# kinases [23] = molecular target: kinases (Homo sapiens, UniProt O00311); details: CDC7/DBF4 FRET-Lantha SP; Test Conc(μM) 1
# [24] = PDK1 (Direct) FRET-Z-lyte SP, Test Conc(μM):ATP Conc(μM) 1:25
# [25] = PDK1 Cascade FRET-Z-Lyte SP, Test Conc(μM):ATP Conc(μM) 1:100
# Sequence of kinases (Homo sapiens, UniProt Q9Y243) (Q9Y243 whole entry): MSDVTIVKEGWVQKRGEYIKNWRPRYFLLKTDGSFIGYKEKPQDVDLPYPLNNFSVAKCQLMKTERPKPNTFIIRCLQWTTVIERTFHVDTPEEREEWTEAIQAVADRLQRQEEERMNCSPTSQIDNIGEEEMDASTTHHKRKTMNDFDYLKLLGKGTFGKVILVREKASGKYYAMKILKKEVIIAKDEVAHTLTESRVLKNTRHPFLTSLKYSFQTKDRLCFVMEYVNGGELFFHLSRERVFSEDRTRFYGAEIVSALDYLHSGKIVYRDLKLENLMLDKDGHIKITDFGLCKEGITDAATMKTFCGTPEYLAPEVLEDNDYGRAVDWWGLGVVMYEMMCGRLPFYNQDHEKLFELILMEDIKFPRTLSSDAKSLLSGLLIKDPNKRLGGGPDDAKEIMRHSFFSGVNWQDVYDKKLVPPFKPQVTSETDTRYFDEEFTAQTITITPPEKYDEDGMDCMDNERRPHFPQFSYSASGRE
# Sequence of kinases (Homo sapiens, UniProt Q9NYY3) (Q9NYY3 whole entry): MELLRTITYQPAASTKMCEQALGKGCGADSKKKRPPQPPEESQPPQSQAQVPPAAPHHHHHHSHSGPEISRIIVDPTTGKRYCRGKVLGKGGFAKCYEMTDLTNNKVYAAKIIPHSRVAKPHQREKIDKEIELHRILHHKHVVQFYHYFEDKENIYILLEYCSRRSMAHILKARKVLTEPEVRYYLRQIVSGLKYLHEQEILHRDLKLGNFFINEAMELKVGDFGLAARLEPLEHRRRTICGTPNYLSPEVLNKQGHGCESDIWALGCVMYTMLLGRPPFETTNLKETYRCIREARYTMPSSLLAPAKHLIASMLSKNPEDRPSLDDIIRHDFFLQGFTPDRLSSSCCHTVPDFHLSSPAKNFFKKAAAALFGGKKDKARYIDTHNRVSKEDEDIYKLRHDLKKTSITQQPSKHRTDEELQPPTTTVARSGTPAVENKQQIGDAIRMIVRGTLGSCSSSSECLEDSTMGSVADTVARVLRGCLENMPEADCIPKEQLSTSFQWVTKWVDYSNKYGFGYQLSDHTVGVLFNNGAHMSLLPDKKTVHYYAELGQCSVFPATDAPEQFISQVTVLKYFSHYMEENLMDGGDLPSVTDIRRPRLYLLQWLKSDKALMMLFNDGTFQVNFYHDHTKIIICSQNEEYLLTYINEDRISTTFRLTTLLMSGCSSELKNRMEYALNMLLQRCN
# Sequence of kinases (Homo sapiens, UniProt Q86SG6) (Q86SG6 whole entry): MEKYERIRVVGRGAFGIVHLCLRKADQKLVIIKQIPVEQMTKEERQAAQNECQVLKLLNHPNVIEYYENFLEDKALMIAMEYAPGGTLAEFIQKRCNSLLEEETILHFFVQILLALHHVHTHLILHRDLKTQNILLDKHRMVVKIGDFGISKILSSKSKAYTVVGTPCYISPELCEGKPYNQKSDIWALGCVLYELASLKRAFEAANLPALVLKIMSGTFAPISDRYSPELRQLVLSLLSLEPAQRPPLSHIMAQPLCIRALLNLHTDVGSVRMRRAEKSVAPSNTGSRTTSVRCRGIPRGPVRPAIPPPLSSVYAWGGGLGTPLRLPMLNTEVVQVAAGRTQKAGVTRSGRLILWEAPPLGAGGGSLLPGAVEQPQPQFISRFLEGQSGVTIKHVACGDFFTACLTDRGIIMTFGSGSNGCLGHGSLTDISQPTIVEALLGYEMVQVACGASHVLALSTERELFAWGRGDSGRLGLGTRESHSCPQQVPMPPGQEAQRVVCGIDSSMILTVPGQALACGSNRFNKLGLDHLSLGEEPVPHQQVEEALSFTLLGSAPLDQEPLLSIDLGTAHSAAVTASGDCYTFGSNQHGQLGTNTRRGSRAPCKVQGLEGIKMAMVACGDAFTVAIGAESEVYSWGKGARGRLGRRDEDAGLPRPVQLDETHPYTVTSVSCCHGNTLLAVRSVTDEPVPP
# Sequence of kinases (Homo sapiens, UniProt P42679) (P42679 whole entry): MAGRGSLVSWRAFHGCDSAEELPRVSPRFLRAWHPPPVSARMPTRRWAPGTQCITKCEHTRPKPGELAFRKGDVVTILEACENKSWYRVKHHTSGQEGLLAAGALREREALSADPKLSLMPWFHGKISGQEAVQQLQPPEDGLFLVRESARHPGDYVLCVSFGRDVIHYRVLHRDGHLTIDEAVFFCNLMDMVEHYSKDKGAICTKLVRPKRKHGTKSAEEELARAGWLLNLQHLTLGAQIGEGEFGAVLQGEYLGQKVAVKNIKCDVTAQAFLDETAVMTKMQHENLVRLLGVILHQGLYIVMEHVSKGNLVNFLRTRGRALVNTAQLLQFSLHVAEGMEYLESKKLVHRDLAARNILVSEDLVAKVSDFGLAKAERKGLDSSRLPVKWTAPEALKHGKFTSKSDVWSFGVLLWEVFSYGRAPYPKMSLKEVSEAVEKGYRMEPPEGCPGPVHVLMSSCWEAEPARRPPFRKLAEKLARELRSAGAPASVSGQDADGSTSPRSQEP
# Sequence of kinases (Homo sapiens, UniProt Q2M2I8) (Q2M2I8 whole entry): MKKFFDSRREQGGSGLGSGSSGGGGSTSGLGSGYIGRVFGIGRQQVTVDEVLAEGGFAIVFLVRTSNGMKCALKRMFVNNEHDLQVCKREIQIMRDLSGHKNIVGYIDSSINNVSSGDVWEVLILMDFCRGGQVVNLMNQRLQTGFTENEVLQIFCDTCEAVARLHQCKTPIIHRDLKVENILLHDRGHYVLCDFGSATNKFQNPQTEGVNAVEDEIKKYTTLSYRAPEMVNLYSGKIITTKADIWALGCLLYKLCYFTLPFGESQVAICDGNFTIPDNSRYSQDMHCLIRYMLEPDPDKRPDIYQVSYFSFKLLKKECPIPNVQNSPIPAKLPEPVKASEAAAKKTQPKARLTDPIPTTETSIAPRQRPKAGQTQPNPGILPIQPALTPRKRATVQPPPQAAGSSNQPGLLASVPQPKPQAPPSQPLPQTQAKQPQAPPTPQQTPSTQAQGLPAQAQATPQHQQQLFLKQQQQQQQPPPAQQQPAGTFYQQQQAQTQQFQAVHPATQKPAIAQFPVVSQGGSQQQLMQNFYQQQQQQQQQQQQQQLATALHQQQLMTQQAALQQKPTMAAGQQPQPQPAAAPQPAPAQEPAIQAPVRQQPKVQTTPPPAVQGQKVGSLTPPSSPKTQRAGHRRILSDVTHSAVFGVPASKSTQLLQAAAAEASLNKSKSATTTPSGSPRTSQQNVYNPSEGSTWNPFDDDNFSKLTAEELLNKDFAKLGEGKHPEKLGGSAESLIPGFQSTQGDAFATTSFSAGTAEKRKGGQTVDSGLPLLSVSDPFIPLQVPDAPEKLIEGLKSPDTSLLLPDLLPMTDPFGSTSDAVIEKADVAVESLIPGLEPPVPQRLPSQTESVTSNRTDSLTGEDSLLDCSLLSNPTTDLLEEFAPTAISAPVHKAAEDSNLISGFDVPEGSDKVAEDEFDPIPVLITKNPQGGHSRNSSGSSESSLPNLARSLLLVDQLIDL
# Sequence of kinases (Homo sapiens, UniProt Q56UN5) (Q56UN5 whole entry): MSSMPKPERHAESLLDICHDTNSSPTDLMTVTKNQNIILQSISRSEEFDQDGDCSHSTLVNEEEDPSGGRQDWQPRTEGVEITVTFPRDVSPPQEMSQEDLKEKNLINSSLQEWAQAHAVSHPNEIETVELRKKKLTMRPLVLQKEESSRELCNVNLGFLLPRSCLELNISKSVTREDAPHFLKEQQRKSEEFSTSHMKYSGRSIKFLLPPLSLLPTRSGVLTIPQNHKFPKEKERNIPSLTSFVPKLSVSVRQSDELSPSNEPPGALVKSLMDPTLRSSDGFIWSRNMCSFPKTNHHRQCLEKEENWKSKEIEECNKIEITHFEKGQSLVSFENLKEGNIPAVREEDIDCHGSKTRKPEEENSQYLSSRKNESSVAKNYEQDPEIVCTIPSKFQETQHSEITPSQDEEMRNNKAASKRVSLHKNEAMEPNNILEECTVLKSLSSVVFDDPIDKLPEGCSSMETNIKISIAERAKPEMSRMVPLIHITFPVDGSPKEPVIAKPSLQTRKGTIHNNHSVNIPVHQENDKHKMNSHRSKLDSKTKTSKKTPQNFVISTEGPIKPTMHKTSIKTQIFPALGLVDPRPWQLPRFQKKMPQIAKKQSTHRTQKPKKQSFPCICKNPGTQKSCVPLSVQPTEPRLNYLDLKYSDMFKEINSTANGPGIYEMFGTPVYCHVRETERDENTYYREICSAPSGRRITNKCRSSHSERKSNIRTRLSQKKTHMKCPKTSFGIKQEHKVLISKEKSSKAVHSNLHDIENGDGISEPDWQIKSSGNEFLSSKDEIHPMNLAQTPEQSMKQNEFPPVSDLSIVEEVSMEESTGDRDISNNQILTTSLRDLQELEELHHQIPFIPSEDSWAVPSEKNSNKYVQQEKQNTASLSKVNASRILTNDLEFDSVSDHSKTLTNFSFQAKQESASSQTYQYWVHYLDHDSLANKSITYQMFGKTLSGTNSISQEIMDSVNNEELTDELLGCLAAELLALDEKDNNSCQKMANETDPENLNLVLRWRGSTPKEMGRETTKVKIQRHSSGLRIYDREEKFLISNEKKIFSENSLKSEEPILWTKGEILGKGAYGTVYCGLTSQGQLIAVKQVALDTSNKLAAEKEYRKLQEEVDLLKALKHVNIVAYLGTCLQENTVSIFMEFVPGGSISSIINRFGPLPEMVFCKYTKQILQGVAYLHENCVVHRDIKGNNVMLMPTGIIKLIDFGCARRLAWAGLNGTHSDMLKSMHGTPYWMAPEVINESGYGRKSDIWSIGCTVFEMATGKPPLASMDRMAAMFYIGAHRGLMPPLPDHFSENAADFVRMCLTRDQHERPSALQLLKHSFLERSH
# Sequence of kinases (Homo sapiens, UniProt P53778) (P53778 whole entry): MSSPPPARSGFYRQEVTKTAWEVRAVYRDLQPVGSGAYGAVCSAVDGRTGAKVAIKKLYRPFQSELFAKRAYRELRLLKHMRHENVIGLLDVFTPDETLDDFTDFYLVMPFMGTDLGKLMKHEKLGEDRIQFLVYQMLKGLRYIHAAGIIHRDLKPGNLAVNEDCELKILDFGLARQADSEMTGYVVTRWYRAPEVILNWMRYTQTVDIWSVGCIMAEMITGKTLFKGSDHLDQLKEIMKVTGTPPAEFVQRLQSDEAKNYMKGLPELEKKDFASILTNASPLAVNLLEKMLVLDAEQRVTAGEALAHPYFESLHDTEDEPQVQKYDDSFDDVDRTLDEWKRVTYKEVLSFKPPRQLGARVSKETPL
SMILES,Mean Inhib (%) (kinases [1]),Mean Inhib (%) (kinases [2]),Mean Inhib (%) (kinases [3]),Mean Inhib (%) (kinases [4]),Mean Inhib (%) (kinases [5]),Mean Inhib (%) (kinases [6]),Mean Inhib (%) (kinases [7]),Mean Inhib (%) (kinases [8]),Mean Inhib (%) (kinases [10]),Mean Inhib (%) (kinases [11]),Mean Inhib (%) (kinases [12]; [24]),Mean Inhib (%) (kinases [12]; [25]),Mean Inhib (%) (kinases [13]),Mean Inhib (%) (kinases [14]),Mean Inhib (%) (kinases [15]),Mean Inhib (%) (kinases [17]),Mean Inhib (%) (kinases [18]),Mean Inhib (%) (kinases [19]),Mean Inhib (%) (kinases [20]),Mean Inhib (%) (kinases [21]),also measured
Cc1ccc(NC(=O)c2ccnc(N3CCOCC3)c2)cc1Nc1ccnc(N2CC(C)OC(C)C2)n1 (stereo not drawn) [compound 3],7.8,−2.0,−6.9,6.0,−1.6,10.0,5.1,5.8,−5.6,1.8,0.4,3.7,5.7,5.8,−9.5,2.9,−8.8,1.5,5.8,6.7,Mean Inhib (%) (kinases [9]; WNK1 FRET-Lantha SP): 2.7%; Mean Inhib (%) (kinases [16]; Test Conc(μM):ATP Conc(μM) 1:300): 3.2%; Mean Inhib (%) (kinases [22]): 27.7%; Mean Inhib (%) (kinases [23]): 4.9%
Cc1cc(Oc2ccnc(Nc3ccc(S(N)(=O)=O)cc3)c2)c(-c2ccccn2)nc1C [compound 65],2.1,−2.0,−6.2,5.1,−3.1,8.9,4.1,56.6,−1.9,14.0,6.9,9.4,0.3,4.2,−7.5,0.1,−4.5,−1.9,2.4,55.3,WNK1 FRET-Lantha SP Mean Mean Inhib (%) (kinases [9]; WNK1): 5.3%; Mean Inhib (%) (kinases [16]; Test Conc(μM):ATP Conc(μM) 0.25): 1.8%; Mean Inhib (%) (kinases [22]): −7.3%; Mean Inhib (%) (kinases [23]): 0.9%
